{"source": "ChEMBL document CHEMBL4814073", "about": "“Ring-opening of five-membered heterocycles conjugated 4-isopropylresorcinol scaffold-based benzamides as HSP90 inhibitors suppressing tumor growth in vitro and in vivo” (Eur J Med Chem, 2021)", "key": {"A549 [1]": {"tested_on": "A549", "test": "Inhibition of MAPK signaling pathway in human A549 cells at 3 uM incubated for 24 hrs by immunoblot analysis", "type": "cell-based"}, "A549 [2]": {"tested_on": "A549", "test": "Antimigratory activity against human A549 cells assessed as inhibition of migration at 0.1 to 3 uM incubated for 6 hrs by crystal violet staining based by Boyden chamber method", "type": "functional, cell-based", "details": "dose 0.1-3 µM"}, "A549 [3]": {"tested_on": "A549", "test": "Induction of EGFR degradation in human A549 cells assessed as reduction in eGFR expression at 3 uM by immunoblot analysis", "type": "functional, cell-based", "details": "time hrs <=24, TDE = time-dependent effect"}, "[4]": {"test": "Metabolic stability in Sprague-Dawley rat hepatocytes assessed as Intrinsic clearance by LC-MS/MS analysis", "type": "ADME, cell-based, Hepatocyte"}, "Heat shock protein HSP90 [5]": {"target": "T1, Heat shock protein HSP90 (Homo sapiens, UniProt P07900+P08238)", "test": "Inhibition of HSP90 in human A549 cells assessed as downregulation of FAK expression incubated for 24 hrs by immunoblot analysis", "type": "cell-based", "details": "dose microM <=3, time 24.0 hrs"}, "Heat shock protein HSP90 [6]": {"target": "T1, Heat shock protein HSP90", "test": "Inhibition of HSP90 in human A549 cells assessed as downregulation of Src expression incubated for 24 hrs by immunoblot analysis", "type": "cell-based", "details": "dose microM <=3, time 24.0 hrs"}, "Cytochrome P450 2C9": {"target": "Cytochrome P450 2C9 (Homo sapiens, UniProt P11712)", "sequence (P11712 whole entry)": "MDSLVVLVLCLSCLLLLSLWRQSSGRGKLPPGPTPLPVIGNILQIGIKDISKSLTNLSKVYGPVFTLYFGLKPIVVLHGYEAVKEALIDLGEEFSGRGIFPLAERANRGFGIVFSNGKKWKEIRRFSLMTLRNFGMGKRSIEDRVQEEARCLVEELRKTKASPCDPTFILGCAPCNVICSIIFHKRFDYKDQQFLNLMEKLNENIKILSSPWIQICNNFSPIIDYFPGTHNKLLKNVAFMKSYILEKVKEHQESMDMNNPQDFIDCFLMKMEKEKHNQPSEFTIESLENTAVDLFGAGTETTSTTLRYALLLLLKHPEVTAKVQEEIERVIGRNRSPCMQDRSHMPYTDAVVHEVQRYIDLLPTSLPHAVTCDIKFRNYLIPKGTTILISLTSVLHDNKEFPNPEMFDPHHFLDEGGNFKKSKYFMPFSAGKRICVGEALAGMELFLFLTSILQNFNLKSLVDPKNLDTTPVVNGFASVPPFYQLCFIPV", "test": "Inhibition of CYP2C9 in human liver microsomes using diclofenac as substrate by LC-MS/MS analysis", "type": "ADME"}, "A549 [7]": {"tested_on": "A549", "test": "Induction of cell cycle arrest in human A549 cells assessed as M stage arrest by measuring upregulation of p-histone H3 (Ser10) expression at 0.3 uM incubated for 24 hrs by Western blot analysis", "type": "functional, cell-based"}, "[8]": {"test": "Metabolic stability in Sprague-Dawley rat hepatocytes assessed as half life by LC-MS/MS analysis", "type": "ADME, cell-based, Hepatocyte"}, "Cytochrome P450 2D6": {"target": "Cytochrome P450 2D6 (Homo sapiens, UniProt P10635)", "sequence (P10635 whole entry)": "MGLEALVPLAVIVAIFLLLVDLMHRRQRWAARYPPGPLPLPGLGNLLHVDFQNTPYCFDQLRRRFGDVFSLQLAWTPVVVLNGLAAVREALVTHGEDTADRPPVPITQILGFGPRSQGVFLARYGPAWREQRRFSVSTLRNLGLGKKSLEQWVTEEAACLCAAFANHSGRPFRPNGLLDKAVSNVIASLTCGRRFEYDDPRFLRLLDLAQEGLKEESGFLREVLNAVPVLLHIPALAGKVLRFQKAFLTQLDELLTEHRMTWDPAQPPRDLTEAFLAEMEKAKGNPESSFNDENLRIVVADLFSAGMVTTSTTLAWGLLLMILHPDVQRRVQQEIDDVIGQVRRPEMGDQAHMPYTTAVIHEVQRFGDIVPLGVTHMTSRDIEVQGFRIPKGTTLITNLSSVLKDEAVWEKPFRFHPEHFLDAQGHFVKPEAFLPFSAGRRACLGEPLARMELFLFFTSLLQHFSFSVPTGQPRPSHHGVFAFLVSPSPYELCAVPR", "test": "Inhibition of CYP2D6 in human liver microsomes using dextromethorphan as substrate by LC-MS/MS analysis", "type": "ADME"}, "661W": {"tested_on": "661W", "test": "Cytotoxicity against mouse 661W cells by MTT based vision related toxicity assay", "type": "cell-based"}, "CYP1A2": {"target": "T2, CYP1A2 (Homo sapiens, UniProt P05177)", "T2 sequence (P05177 whole entry)": "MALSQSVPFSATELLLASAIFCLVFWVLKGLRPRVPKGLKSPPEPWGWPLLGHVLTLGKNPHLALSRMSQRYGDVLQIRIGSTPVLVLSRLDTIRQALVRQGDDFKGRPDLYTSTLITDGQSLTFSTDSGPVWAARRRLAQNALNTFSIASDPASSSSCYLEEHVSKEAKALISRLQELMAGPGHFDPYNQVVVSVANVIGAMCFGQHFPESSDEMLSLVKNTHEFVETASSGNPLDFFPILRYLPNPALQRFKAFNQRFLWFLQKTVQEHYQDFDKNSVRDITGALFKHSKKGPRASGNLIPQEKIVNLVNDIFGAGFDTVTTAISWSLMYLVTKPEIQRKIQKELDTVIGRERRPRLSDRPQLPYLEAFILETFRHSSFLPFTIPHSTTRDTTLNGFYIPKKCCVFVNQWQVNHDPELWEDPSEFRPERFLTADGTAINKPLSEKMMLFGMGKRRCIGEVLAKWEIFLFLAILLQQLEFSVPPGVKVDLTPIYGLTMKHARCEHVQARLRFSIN", "test": "Inhibition of CYP1A2 in human liver microsomes using phenacetin as substrate at 50 uM by LC-MS/MS analysis", "type": "ADME", "details": "probe phenacetin"}, "NCI-H1975": {"tested_on": "NCI-H1975", "test": "Antiproliferative activity against human NCI-H1975 cells harbouring EGFR L858R/T790M mutant measured after 48 hrs by SRB assay", "details": "NCI-H1975, 48 h"}, "A549 [9]": {"tested_on": "A549", "test": "Induction of apoptosis in human A549 cells assessed as increase in cleaved caspase 6 protein expression at 0.3 to 3 uM measured after 18 hrs by western blot analysis", "type": "functional, cell-based", "details": "dose 0.3-3 µM"}, "Cytochrome P450 2B6": {"target": "T3, Cytochrome P450 2B6 (Homo sapiens, UniProt P20813)", "T3 sequence (P20813 whole entry)": "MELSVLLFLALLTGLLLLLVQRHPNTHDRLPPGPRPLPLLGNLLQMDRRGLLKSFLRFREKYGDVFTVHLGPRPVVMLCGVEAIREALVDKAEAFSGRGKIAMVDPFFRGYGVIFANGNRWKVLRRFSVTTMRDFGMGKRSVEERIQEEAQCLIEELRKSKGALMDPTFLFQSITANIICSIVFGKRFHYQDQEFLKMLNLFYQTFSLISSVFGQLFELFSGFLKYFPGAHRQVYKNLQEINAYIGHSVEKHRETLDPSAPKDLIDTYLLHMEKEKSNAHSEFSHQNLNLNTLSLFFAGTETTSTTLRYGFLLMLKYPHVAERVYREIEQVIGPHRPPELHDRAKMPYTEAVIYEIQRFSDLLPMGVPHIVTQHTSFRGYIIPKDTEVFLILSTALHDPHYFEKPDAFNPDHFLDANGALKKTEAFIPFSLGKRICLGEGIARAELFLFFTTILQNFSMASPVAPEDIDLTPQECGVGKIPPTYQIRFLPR", "test": "Inhibition of CYP2B6 in human liver microsomes using bupropion as substrate by LC-MS/MS analysis", "type": "ADME"}, "A549 [10]": {"tested_on": "A549", "test": "Induction of apoptosis in human A549 cells assessed as increase in cleaved caspase 9 protein expression at 0.3 to 3 uM measured after 18 hrs by western blot analysis", "type": "functional, cell-based", "details": "dose 0.3-3 µM"}, "[11]": {"test": "Half life in Sprague-Dawley rat at 20 mg/kg, po measured after 1 hrs by LC-MS/MS analysis", "type": "ADME, organism-based", "details": "in vivo"}, "Cytochrome P450 2C8": {"target": "T4, Cytochrome P450 2C8 (Homo sapiens, UniProt P10632)", "T4 sequence (P10632 whole entry)": "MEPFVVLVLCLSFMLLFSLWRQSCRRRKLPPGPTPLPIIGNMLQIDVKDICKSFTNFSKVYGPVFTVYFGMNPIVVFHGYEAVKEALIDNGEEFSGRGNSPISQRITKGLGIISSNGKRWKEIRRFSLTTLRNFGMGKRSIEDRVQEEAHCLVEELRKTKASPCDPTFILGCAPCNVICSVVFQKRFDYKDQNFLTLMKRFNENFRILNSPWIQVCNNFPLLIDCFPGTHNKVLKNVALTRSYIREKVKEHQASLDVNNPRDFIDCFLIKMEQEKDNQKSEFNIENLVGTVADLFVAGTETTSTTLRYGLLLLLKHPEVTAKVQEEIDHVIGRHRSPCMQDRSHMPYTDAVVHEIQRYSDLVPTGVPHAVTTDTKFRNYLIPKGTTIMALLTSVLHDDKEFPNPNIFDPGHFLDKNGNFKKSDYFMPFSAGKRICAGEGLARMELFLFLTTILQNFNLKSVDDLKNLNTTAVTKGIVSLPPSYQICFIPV", "test": "Inhibition of CYP2C8 in human liver microsomes using amodiaquine as substrate by LC-MS/MS analysis", "type": "ADME"}, "Heat shock protein HSP90 [12]": {"target": "T1, Heat shock protein HSP90", "test": "Inhibition of HSP90 in human A549 cells assessed as downregulation of FAK expression at 3 uM by immunoblot analysis", "type": "cell-based", "details": "time hrs <=24, TDE = time-dependent effect"}, "[13]": {"test": "Metabolic stability in CD1 mouse hepatocytes assessed as half life by LC-MS/MS analysis", "type": "ADME, cell-based, Hepatocyte"}, "[14]": {"test": "Hepatic clearance in Sprague-Dawley rat by LC-MS/MS analysis", "type": "ADME, tissue-based, Hepatocyte", "details": "hepatocytes"}, "[15]": {"test": "Apparent permeability across apical to basolateral in human Caco2 cells by LC-MS/MS analysis", "type": "ADME, cell-based", "details": "Caco-2, read-out: permeability"}}, "note": "Active and inactive are the calls of the source. No cut-off for these calls is given here."}
{"smiles": "CCN(C(=O)c1cc(C(C)C)c(O)cc1O)c1cccnc1", "values": [{"measurement": "inhibition", "setting": "A549 [1]", "value": "Dose-Dependent Effect"}, {"measurement": "Activity", "setting": "A549 [2]", "value": "Active"}, {"measurement": "Activity", "setting": "A549 [3]", "value": "Tde"}, {"measurement": "CLint", "setting": "[4]", "value": 751, "unit": "mL/min/kg"}, {"measurement": "inhibition", "setting": "Heat shock protein HSP90 [5]", "value": "Dose-Dependent Effect"}, {"measurement": "inhibition", "setting": "Heat shock protein HSP90 [6]", "value": "Dose-Dependent Effect"}, {"measurement": "IC50", "setting": "Cytochrome P450 2C9", "value": 15, "unit": "µM"}, {"measurement": "Activity", "setting": "A549 [7]", "value": "Active"}, {"measurement": "half-life", "setting": "[8]", "value": 11.2, "unit": "min"}, {"measurement": "IC50", "setting": "Cytochrome P450 2D6", "value": "> 50", "unit": "µM"}, {"measurement": "Activity", "setting": "661W", "value": "> 10", "unit": "µM"}, {"measurement": "inhibition at 50 µM", "setting": "CYP1A2", "value": 50.6, "unit": "%"}, {"measurement": "GI50", "setting": "NCI-H1975", "value": 0.05, "unit": "µM"}, {"measurement": "Activity", "setting": "A549 [9]", "value": "Active"}, {"measurement": "IC50", "setting": "Cytochrome P450 2B6", "value": 37.2, "unit": "µM"}, {"measurement": "Activity", "setting": "A549 [10]", "value": "Active"}, {"measurement": "half-life", "setting": "[11]", "value": 984, "unit": "min"}, {"measurement": "IC50", "setting": "Cytochrome P450 2C8", "value": "> 50", "unit": "µM"}, {"measurement": "inhibition", "setting": "Heat shock protein HSP90 [12]", "value": "Tde"}, {"measurement": "half-life", "setting": "[13]", "value": 5.31, "unit": "min"}, {"measurement": "CLhep predicted", "setting": "[14]", "value": 51.2, "unit": "mL/min/kg"}, {"measurement": "Papp A→B", "setting": "[15]", "value": 31.9, "unit": "×10⁻⁶ cm/s"}]}
